In patent publication US20170246160A1, “SOLID PHARMACEUTICAL COMPOSITION” (KYORIN PHARMACEUTICAL CO., LTD., priority 2014, published 2017):

Assay: Dissolution test (paddle method, Japanese Pharmacopoeia Sixteenth Edition), first fluid for dissolution test
Assay type: physicochemical
Settings: for dissolution rate in the first fluid for dissolution test: 30 minutes after initiation, paddle 50 rpm, 37° C., 900 mL, hydrochloride
Experimental: In order to evaluate each of the compositions (tablets) in Example 1 and Comparative Example 1, a dissolution test was performed in accordance with dissolution apparatus 2 (paddle method) in the Japanese Pharmacopoeia Sixteenth Edition. Detailed conditions of the dissolution test are as follows.
In order to evaluate each of the compositions (tablets) in Example 2 and Comparative Example 2, a dissolution test was performed in the same manner as in Test Example 1.

[1] = coated tablets of Example 1 / Comparative Example 1 (direct compression), FIG. 5

Row | dissolution rate in the first fluid for dissolution test [1] | dissolution rate in the first fluid for dissolution test (coated tablets of Example 2 / Comparative Example 2 (wet granulation method), FIG. 6, listed as B-form crystal) [%] | dissolution rate in the first fluid for dissolution test compared with the tablet containing Compound 1 (A-form crystal) (tablets of Example 1 vs Comparative Example 1, FIG. 5) | dissolution rate in the first fluid for dissolution test (coated tablets of Example 2 / Comparative Example 2 (wet granulation method), FIG. 6) | Structure (SMILES)
1 | ≥ 80% | ≥ 80 | higher | – | COc1c(N2C[C@H](CNC3CC3)[C@H](F)C2)c(F)cc2c(=O)c(C(=O)O)cn(CCF)c12.Cl [Compound 2, 7-[(3S,4S)-3-{(cyclopropylamino)methyl}-4-fluoropyrrolidine-1-yl]-6-fluoro-1-(2-fluoroethyl)-8-methoxy-4-oxo-1,4-dihydroquinoline-3-carboxylic acid hydrochloride]
2 | at most 25% | – | – | at most 30% | COc1c(N2C[C@H](CNC3CC3)[C@H](F)C2)c(F)cc2c(=O)c(C(=O)O)cn(CCF)c12.Cl [Compound 1, 7-[(3S,4S)-3-((cyclopropylamino)methyl)-4-fluoropyrrolidine-1-yl]-6-fluoro-1-(2-fluoroethyl)-8-methoxy-4-oxo-1,4-dihydroquinoline-3-carboxylic acid hydrochloride]
